# Measured values taken from publication PMC5268383, “Inhibition of STAT3 by Anticancer Drug Bendamustine” (PLoS ONE, 2017).
# Assays:
# Grb2 SH2 = target: T1, Grb2 SH2 (Homo sapiens, UniProt P62993); experiment: AlphaScreen SH2 binding assay, Grb2
# T1 construct: Avi-tag (N); 6His-tag (N)
# Protocol: AlphaScreen assays were performed in a final reaction volume of 25 μL of the assay buffer, containing 10 mM HEPES-NaOH (pH 7.4), 50 mM NaCl, 1 mM EDTA (pH 8.0), 0.1% NP-40, and 10 ng/mL BSA in a 96-well microtiter plate at 25°C. The labeled Phospho-Tyr (pTyr) peptide probe was 5-carboxyfluorescein (FITC)-GpYLPQTV for STAT3, FITC-GpYDKPHVL for STAT1, and FITC-PSpYVNVQN for Grb2. A DMSO solution of BENDA was incubated with 50 nM of each SH2-containing protein for 15 min, 50 nM of the corresponding FITC-pTyr peptide was added, and the mixture was incubated for 90 min. Streptavidin-coated donor beads and anti-FITC acceptor beads were added and incubated for 90 min before the signals were measured with an Envision Xcite plate reader (PerkinElmer Life Sciences, Waltham, MA, USA).
# [1] = target: T2, STAT3-CFP / STAT3-YFP in HEK293 cells (Homo sapiens, UniProt P40763); experiment: FRET assay of STAT3 dimerization; format: cell-based; settings: HEK293, 10, 20 or 50 μM, pretreatment before 50 ng/mL IL-6 stimulation
# T2 construct: expressed in transfected cells; host or cells: HEK293
# Protocol: The expression vectors for the fusion proteins STAT3-CFP and STAT3-YFP were prepared by the addition of STAT3 cDNA to pAmCyan1-N1 and pZsyellow1-N1. The vector mixture (1:1) was transfected into HEK293 cells with Lipofectamine 2000. The cells were cultured with 2% FBS DMEM for 48 h in a 96-well microtiter plate, treated with 0, 10, 20, or 50 μM BENDA or HP2 in a final DMSO concentration of 0.2% for 24 h, and then stimulated with 50 ng/mL IL-6 for a further 1 h. Fluorescence signals were measured (SpectraMax M5SK). The signals measured by FRET (excitation/emission: 436/528 nm) were corrected for crosstalk signals from cyan (excitation/emission: 436/488 nm) and yellow (excitation/emission: 517/528 nm).
# [2] = target: T3, nuclear STAT3 of MDA-MB-468 cells (Homo sapiens, UniProt P40763); experiment: STAT3 DNA binding assay (TransAM ELISA); format: cell-based; settings: MDA-MB-468, 24 h; BENDA 25, 50, 100 μM, HP2 100 μM
# T3 construct: endogenous in cells; host or cells: MDA-MB-468
# Protocol: The DNA-binding activity of STAT3 was evaluated with a TransAM ELISA kit (Active Motif, Carlsbad, CA, USA). The assay and nuclear extract preparation were performed according to the manufacturer’s instructions. Heat-denatured nuclear extract was used as a negative control. The nuclear extract (20 μg) was added to each well of a 96-well microtiter plate coated with immobilized oligonucleotides containing the STAT3 consensus binding site and incubated at room temperature for 1 h. They were incubated with anti-STAT3 antibody for 1 h at room temperature, followed by HRP-conjugated antibody for 1 h at room temperature. The developing solution was added, the reaction was terminated by the addition of stop solution, and the absorbance was measured at 450 nm with a reference wavelength of 655 nm (SpectraMax M5SK, Molecular Devices, Sunnyvale, CA, USA).
# [3] = target: T4, STAT3-DNA complex (c-myc promoter) in MDA-MB-468 cells (Homo sapiens, UniProt P40763); experiment: ChIP assay, c-myc promoter binding by STAT3; format: cell-based; settings: MDA-MB-468, 8 h; BENDA 25, 50, 100 μM, HP2 50, 100 μM
# T4 construct: endogenous in cells; host or cells: MDA-MB-468
# Protocol: A ChIP assay was performed with an ExactaChIP Human/Mouse STAT3 ChIP kit (R&D Systems, Minneapolis, MN, USA). MDA-MB-468 cancer cells were fixed with 1% formaldehyde and treated with the lysis buffer. After sonication, anti-STAT3 antibody or normal mouse IgG was added to the extract, followed by precipitation with Protein G Plus/Protein A Agarose Suspension. The eluted DNA fraction was used for PCR with human c-myc primers.
# [4] = test system: c-myc mRNA in MDA-MB-468 cells; experiment: RT-PCR of c-myc mRNA; format: cell-based, human; settings: 8 h
# [5] = test system: STAT3-Y705 phosphorylation in MDA-MB-468 cells; experiment: Western blotting of STAT3-Y705 phosphorylation; format: cell-based, human; settings: MDA-MB-468, 50 or 100 μM, 24 h
# Protocol: (§1) Cells were treated with PhosphoSafe Extraction Reagent. Total proteins (40 μg) were subjected to SDS-PAGE and then transferred onto a nitrocellulose membrane. Membranes were blocked in 5% skim milk in TBS/0.1% Tween 20, incubated with primary antibodies diluted at 1:1000 in 1.5% skim milk in TBS (pH 7.4)/0.1% Tween 20 overnight at 4°C, and then incubated with HRP-conjugated secondary antibodies diluted at 1:5000 in TBS (pH 7.4)/0.1% Tween 20 for 1 h at room temperature. Immunoblots were developed with a chemiluminescent substrate.
# [6] = test system: c-Myc protein in MDA-MB-468 cells; experiment: Western blotting of c-Myc protein; format: cell-based, human; settings: MDA-MB-468, 50 or 100 μM, 24 h
# Protocol: as §1
# [7] = test system: cyclin D1, survivin and Bcl-2 mRNA in MDA-MB-468 cells; experiment: RT-PCR of STAT3 target genes cyclin D1, survivin, Bcl-2; format: cell-based, human; settings: MDA-MB-468, 50 or 100 μM, 8 h
# [8] = test system: MDA-MB-468 cells (high P-STAT3); experiment: WST cell proliferation assay, MDA-MB-468; format: cell-based, human; settings: 0.1-100 μM, 48 h, WST-8
# Protocol: Cells were plated in a 96-well tissue culture plate (1000 cells per well) and incubated for 48 h. After incubation, the cells were treated with vehicle, 0.1–100 μM BENDA, or HP2 for 48 h. Samples were assayed in triplicate. After incubation, WST-8 solution (10 μL; Dojindo Molecular Technologies, Rockville, MD, USA) was added to each well and incubated at 37°C for 4 h, and the absorbance was read at 450 nm.
# T1 sequence (P62993 whole entry): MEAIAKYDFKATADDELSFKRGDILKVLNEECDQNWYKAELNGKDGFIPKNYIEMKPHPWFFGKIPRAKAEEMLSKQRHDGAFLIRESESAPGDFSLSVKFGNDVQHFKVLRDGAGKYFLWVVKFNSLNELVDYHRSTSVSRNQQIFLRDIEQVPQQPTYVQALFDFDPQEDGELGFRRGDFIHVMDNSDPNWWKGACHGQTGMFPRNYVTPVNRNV
# T2 sequence (P40763 whole entry): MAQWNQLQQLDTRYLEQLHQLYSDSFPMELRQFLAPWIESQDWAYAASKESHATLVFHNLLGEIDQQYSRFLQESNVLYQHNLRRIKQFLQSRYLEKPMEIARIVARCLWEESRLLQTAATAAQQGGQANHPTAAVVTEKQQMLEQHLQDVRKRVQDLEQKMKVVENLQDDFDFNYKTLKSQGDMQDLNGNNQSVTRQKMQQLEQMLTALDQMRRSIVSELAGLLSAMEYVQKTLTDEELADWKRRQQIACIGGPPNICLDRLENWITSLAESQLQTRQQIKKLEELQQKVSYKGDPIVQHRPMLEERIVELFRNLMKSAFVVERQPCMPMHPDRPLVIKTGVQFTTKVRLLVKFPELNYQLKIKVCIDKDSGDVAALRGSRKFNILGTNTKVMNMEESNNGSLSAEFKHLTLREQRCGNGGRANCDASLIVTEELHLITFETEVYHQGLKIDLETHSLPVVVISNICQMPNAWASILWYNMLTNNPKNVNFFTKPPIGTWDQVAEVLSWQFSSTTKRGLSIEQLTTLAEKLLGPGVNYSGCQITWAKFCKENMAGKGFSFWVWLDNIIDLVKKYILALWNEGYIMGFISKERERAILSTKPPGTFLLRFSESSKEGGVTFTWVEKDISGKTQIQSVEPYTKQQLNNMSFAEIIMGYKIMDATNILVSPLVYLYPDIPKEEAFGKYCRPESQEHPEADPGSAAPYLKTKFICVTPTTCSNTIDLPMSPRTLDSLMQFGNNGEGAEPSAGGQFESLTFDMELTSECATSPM
# T3 sequence (P40763 2-770 limits assumed): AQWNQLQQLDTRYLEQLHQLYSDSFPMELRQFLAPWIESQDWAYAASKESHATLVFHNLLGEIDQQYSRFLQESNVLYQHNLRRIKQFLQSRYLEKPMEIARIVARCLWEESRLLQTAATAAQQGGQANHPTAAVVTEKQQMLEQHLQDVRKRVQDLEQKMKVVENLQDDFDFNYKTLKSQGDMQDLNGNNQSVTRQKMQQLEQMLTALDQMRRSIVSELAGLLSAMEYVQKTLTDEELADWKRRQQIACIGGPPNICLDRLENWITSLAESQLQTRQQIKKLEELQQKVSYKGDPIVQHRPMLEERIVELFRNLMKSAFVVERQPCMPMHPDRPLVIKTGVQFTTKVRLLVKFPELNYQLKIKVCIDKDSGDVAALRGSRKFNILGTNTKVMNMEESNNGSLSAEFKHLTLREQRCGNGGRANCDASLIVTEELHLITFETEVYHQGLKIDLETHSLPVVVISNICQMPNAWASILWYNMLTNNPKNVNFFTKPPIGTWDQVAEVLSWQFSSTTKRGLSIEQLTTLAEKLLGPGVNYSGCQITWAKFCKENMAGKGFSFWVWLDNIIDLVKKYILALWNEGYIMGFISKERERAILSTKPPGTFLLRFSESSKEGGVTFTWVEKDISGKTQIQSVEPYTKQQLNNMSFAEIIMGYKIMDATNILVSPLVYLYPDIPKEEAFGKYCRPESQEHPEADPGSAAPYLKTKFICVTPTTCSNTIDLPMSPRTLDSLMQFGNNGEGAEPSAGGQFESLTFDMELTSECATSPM
# T4 sequence (P40763 2-770 limits assumed, one chain of several): as the sequence (P40763 2-770 limits assumed) above
compound,measurement,setting,value
"Cn1c(CCCC(=O)O)nc2cc(N(CCCl)CCCl)ccc21 [BENDA, 4-{5-[bis(2-chloroethyl)amino]-1-methyl-2-benzimidazolyl} butyric acid]",IC50,Grb2 SH2,> 100 µM
same,Effect on FRET signals (STAT3 dimerization),[1],reduced the FRET signals
same,Inhibition of STAT3 binding to oligonucleotides containing STAT3 consensus binding site,[2],inhibited
same,Amplified c-myc promoter band in STAT3 ChIP,[3],reduced
same,"c-myc mRNA expression, % of vehicle treatment","[4]; MDA-MB-468, 50 μM",72%
same,"c-myc mRNA expression, % of vehicle treatment","[4]; MDA-MB-468, 100 μM",33%
same,Phosphorylation of STAT3-Y705,[5],inhibited the phosphorylation of STAT3-Y705 in a concentration-dependent manner
same,Expression of c-Myc protein,[6],inhibited the expression of c-Myc protein
same,Bcl-2 mRNA expression,[7],dose-dependent decrease
same,cyclin D1 mRNA expression,[7],dose-dependent decrease
same,survivin mRNA expression,[7],dose-dependent decrease
same,Inhibition of proliferation of MDA-MB-468 cells,[8],inhibited proliferation
